Patent US20060166901A1, “Compositions comprising O-acetylsalicyl derivatives of aminocarbohydrates and amino acids” (priority 2005, published 2006)

How the values were obtained:
[1] = patients, recent studies; cited from earlier work
[2] = tested on: osteoarthritis of both knees; experiment: Oral administration to a subject with osteoarthritis of both knees, relief of knee pain and adverse reactions; type: in vivo, human; settings: earlier treatment
Method: The subject took an oral dose of 100 mg N—(O-acetylsalicyl)-L-tyrosine ethyl ester.
Subject, weight 90 kg, had 4 year history of osteoarthritis of both knees which was confirmed by X-ray and MRI showing diminished articular space. Symptoms of pain upon walking and at rest, as well as tenderness to palpation, had been consistently present, varying in intensity from moderate to severe.
[…] […] The subject did intensive physical activities during the next 10 hours that consisted of farming manual labor that included climbing up and down the banks of a pond to cut off cattail weeds at root level, and manually carrying stalks up the pond bank to level ground. Other physical exertions included numerous mounting and demounting from a farm tractor that pulled a trailer containing cattail weeds to dumping sites.

[3] = nonsteroidal anti-inflammatory agents

CS(=O)(=O)c1ccc(C2=C(c3ccccc3)C(=O)OC2)cc1 [rofecoxib, Rofecoxib]
rates of heart attack (cardiac arrest) versus the control group [1]: higher rates of heart attack

COc1ccc2cc([C@H](C)C(=O)O)ccc2c1 [naproxen]
relief of osteoarthritis symptoms (subject's history) [2, 3]: had not been relieved

CC(C)Cc1ccc(C(C)C(=O)O)cc1 (centres unmarked) [ibuprofen]
relief of osteoarthritis symptoms (subject's history) [2, 3]: had not been relieved

C[C@]12C=CC(=O)C=C1CC[C@@H]1[C@@H]2C(=O)C[C@@]2(C)[C@H]1CC[C@]2(O)C(=O)CO [prednisone]
relief of osteoarthritis symptoms (subject's history) ([2]; oral, 10-30 mg daily): relieved incompletely

Cc1ccc(-c2cc(C(F)(F)F)nn2-c2ccc(S(N)(=O)=O)cc2)cc1 [celecoxib]
rates of heart attack (cardiac arrest) versus the control group [1]: higher rates of heart attack
